According to patent US20140094462A1, “SONIC HEDGEHOG MODULATORS” (priority 2009, published 2014):

Target: T1, ShhN protein (Homo sapiens, UniProt Q15465)
T1 construct: auto-cleavage of full length Shh into an active 20 kD N-terminal fragment (ShhN); purchased R&D Systems
Assay: Surface Plasmon Resonance (SPR) protein binding assay on immobilized ShhN
Details: SPR, Biacore T100, ShhN immobilized on CM4 chip, 25° C., compound 0.78 μM-25 μM; read-out: KD
Procedure: Biacore™ T100 (GE Healthcare, Uppsala, Sweden) was used to perform the experiments described herein. Sensor surface preparation and interaction analyses experiments were performed at 25° C.
Control surfaces were prepared similarly without protein derivatization and were utilized as a reference surfaces for compound binding experiments.
Zero concentration blank buffer cycles were included as negative control samples.
Data analysis was carried out using Biacore T100 evaluation software v1.1.1. […] Solvent correction was then applied as described previously.

T1 sequence (Q15465 24-197 limits assumed, species assumed): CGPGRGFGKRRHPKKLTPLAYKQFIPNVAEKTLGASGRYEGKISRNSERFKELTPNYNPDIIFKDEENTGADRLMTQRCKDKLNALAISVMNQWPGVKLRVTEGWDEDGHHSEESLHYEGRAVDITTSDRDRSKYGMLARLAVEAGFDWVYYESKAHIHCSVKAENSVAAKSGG

Row | Kd [µM] | Structure (SMILES)
1 | 1 to 100 | CC(C)c1ccc(CNC(=O)C[C@@H]2C/C=C/CCC(=O)O[C@H](c3ccccc3)CNC2=O)cc1 [EJ]
2 | > 100 | O=C(C[C@@H]1C/C=C/CCC(=O)O[C@H](c2ccccc2)CNC1=O)NCCc1ccc(Cl)cc1 [EL]
3 | > 100 | CN(Cc1ccc(Cl)cc1)C(=O)C[C@@H]1C/C=C/CCC(=O)O[C@H](c2ccccc2)CN(C)C1=O [EP]
4 | > 100 | O=C(C[C@@H]1C/C=C/CCC(=O)O[C@H](c2ccccc2)CN(Cc2ccccc2)C1=O)NCc1ccc(Cl)cc1 [EV]
5 | 1 to 100 | C[C@H]1[C@@H](c2ccccc2)OC(=O)CC[C@H](O)[C@@H](O)C[C@@H](CC(=O)NCc2ccc(Cl)cc2)C(=O)N1C [Example BB, N-(4-chlorobenzyl)-2-((2R,3S,6S,8S,9S)-8,9-dihydroxy-3,4-dimethyl-5,12-dioxo-2-phenyl-1-oxa-4-azacyclododecan-6-yl)acetamide]
6 | 0.1 to 1 | C[C@@H]1C/C=C/C[C@@H](CC(=O)NCc2ccc(Cl)cc2)C(=O)NC[C@@H](c2ccccc2)OC1=O [Example EA, N-(4-chlorobenzyl)-2-((2R,6S,11R,E)-11-methyl-5,12-dioxo-2-phenyl-1-oxa-4-azacyclododec-8-en-6-yl)acetamide]
7 | 1 to 100 | N[C@H]1C/C=C/C[C@@H](CC(=O)NCc2ccc(Cl)cc2)C(=O)NC[C@@H](c2ccccc2)OC1=O [Example EB, 2-((2R,6S,11S,E)-11-amino-5,12-dioxo-2-phenyl-1-oxa-4-azacyclododec-8-en-6-yl)-N-(4-chlorobenzyl)acetamide]
8 | < 0.1 | O=C(C[C@@H]1C/C=C/C[C@H](O)C(=O)O[C@H](c2ccccc2)CNC1=O)NCc1ccc(Cl)cc1 [Example EC, N-(4-chlorobenzyl)-2-((2R,6S,11S,E)-11-hydroxy-5,12-dioxo-2-phenyl-1-oxa-4-azacyclododec-8-en-6-yl)acetamide]
9 | > 100 | C[C@H]1C/C=C\C[C@@H](CC(=O)NCc2ccc(Cl)cc2)C(=O)OC[C@@H](c2ccccc2)NC1=O [Example EE, N-(4-chlorobenzyl)-2-((3R,6S,11S,Z)-6-methyl-5,12-dioxo-3-phenyl-1-oxa-4-azacyclododec-8-en-11-yl)acetamide]
10 | > 100 | C[C@H]1[C@@H](c2ccccc2)OC(=O)CC/C=C\C[C@@H](CC(=O)NCc2ccc(Cl)cc2)C(=O)N1C [Example EZ, N-(4-chlorobenzyl)-2-((2R,3S,6S,Z)-3,4-dimethyl-5,12-dioxo-2-phenyl-1-oxa-4-azacyclododec-8-en-6-yl)acetamide]
11 | > 100 | C[C@@H]1NC(=O)[C@H](CC(=O)NCc2ccc(Cl)cc2)C/C=C/CCC(=O)O[C@@H]1c1ccccc1 [FP, N-(4-chlorobenzyl)-2-((2R,3S,6S,E)-3-methyl-5,12-dioxo-2-phenyl-1-oxa-4-azacyclododec-8-en-6-yl)acetamide]

More lines, now with the values behind:

Row | Structure (SMILES) | Kd [µM]
12 | O=C(C[C@@H]1C/C=C/CCC(=O)O[C@H](c2ccccc2)CNC1=O)NCc1ccc(Cl)c(C(F)(F)F)c1 [EK] | > 100
13 | O=C(C[C@@H]1C/C=C/CCC(=O)O[C@H](c2ccccc2)CNC1=O)Nc1ccc(Cl)cc1 [EM] | 1 to 100
14 | O=C(C[C@@H]1C/C=C/CCC(=O)O[C@H](c2ccccc2)CNC1=O)NCc1ccccc1 [EN] | 1 to 100
15 | O=C(C[C@@H]1C/C=C/CCC(=O)O[C@H](c2ccccc2)CNC1=O)NCc1cccc(Cl)c1 [EO] | > 100
16 | COc1ccc(CNC(=O)C[C@@H]2C/C=C/CCC(=O)O[C@H](c3ccccc3)CNC2=O)cc1 [EQ] | 1 to 100
17 | CN1CCN(C(=O)C[C@@H]2C/C=C/CCC(=O)O[C@H](c3ccccc3)CNC2=O)CC1 [ET] | 1 to 100
18 | O=C1CC/C=C/C[C@@H](CC(=O)N2CCN(c3ncccn3)CC2)C(=O)NC[C@@H](c2ccccc2)O1 [EU] | 1 to 100
19 | O=C(C[C@@H]1C/C=C/CCC(=O)O[C@H](c2ccccc2)CNC1=O)NC(c1ccccc1)c1ccccc1 [EW] | > 100
20 | N[C@@H]1C/C=C/CCC(=O)N[C@H](c2ccccc2)COC1=O [Example AC, (3R,11R,E)-11-amino-3-phenyl-1-oxa-4-azacyclododec-8-ene-5,12-dione] | 1 to 100
21 | C[C@@H]1CCCCCC(=O)OC[C@@H]2CCCN2C1=O [Example BE, (9R,14aS)-9-methyldecahydro-1H-pyrrolo[2,1-c][1,4]oxaazacyclododecine-3,10-dione] | 1 to 100
22 | O=C(C[C@@H]1C/C=C/CCC(=O)N[C@@H]2c3ccccc3C[C@@H]2OC1=O)NCc1ccc(Cl)cc1 [Example BJ, N-(4-chlorobenzyl)-2-((3S,10aR,15aS,E)-2,9-dioxo-2,3,4,7,8,9,10,10a,15,15a-decahydroindeno[2,1-b][1,4]oxaazacyclododecin-3-yl)acetamide] | 1 to 100
23 | CN1C[C@@H](c2ccccc2)OC(=O)CC/C=C/C[C@@H](Cc2ccc(Cl)cc2)C1=O [Example BR, (2R,6S,E)-6-(4-chlorobenzyl)-4-methyl-2-phenyl-1-oxa-4-azacyclododec-8-ene-5,12-dione] | > 100
24 | C[C@@H]1C[C@H](O)[C@@H](O)CCC(=O)N[C@H](c2ccccc2)COC1=O [Example BU, (3R,8S,9S,11R)-8,9-dihydroxy-11-methyl-3-phenyl-1-oxa-4-azacyclododecane-5,12-dione] | 1 to 100
25 | C[C@@H]1C/C=C/CCC(=O)N[C@@H]2c3ccccc3C[C@@H]2OC1=O [Example BV, (3R,10aR,15aS,E)-3-methyl-3,4,7,8,10,10a,15,15a-octahydroindeno[2,1-b][1,4]oxaazacyclododecine-2,9-dione] | 0.1 to 1
26 | O=C(C[C@@H]1C/C=C/C[C@H](Cc2ccccc2)C(=O)N[C@H](c2ccccc2)COC1=O)NCc1ccc(Cl)cc1 [Example ED, 2-((3R,6R,11S,E)-6-benzyl-5,12-dioxo-3-phenyl-1-oxa-4-azacyclododec-8-en-11-yl)-N-(4-chlorobenzyl)acetamide] | > 100
27 | CN1C[C@@H](c2ccccc2)OC(=O)CC/C=C/C[C@@H](CC(=O)NCC2CCOCC2)C1=O [Example EX, 2-((2R,6S,E)-4-methyl-5,12-dioxo-2-phenyl-1-oxa-4-azacyclododec-8-en-6-yl)-N-((tetrahydro-2H-pyran-4-yl)methyl)acetamide] | 1 to 100
28 | COc1ccccc1[C@@H]1COC(=O)[C@H](CC(=O)NCc2ccc(Cl)cc2)C/C=C/CCC(=O)N1 [Example EY, N-(4-chlorobenzyl)-2-((3R,11S,E)-3-(2-methoxyphenyl)-5,12-dioxo-1-oxa-4-azacyclododec-8-en-11-yl)acetamide] | > 100
29 | C[C@H]1[C@@H](c2ccccc2)OC(=O)CC/C=C/C[C@@H](CC(=O)NCCCC(F)(F)F)C(=O)N1C [Example FA, 2-((2R,3S,6S,E)-3,4-dimethyl-5,12-dioxo-2-phenyl-1-oxa-4-azacyclododec-8-en-6-yl)-N-(4,4,4-trifluorobutyl)acetamide] | > 100
30 | O=C(C[C@@H]1CCCCCC(=O)OC[C@@H]2CCCN2C1=O)NCc1ccc(Cl)cc1 [Example FB, N-(4-chlorobenzyl)-2-((9S,14aS)-3,10-dioxododecahydro-1H-pyrrolo[2,1-c][1,4]oxaazacyclododecin-9-yl)acetamide] | 1 to 100
31 | CC(C)[C@@H]1COC(=O)[C@H](CC(=O)NCc2ccc(Cl)cc2)C/C=C/CCC(=O)N1 [FQ, N-(4-chlorobenzyl)-2-((3R,11S,E)-3-isopropyl-5,12-dioxo-1-oxa-4-azacyclododec-8-en-11-yl)acetamide] | 0.1 to 1
